Assay results from PubChem BioAssay AID2060618 (Molecular Pharmacology Branch, DTP, NCI, 2025).

System: 454973-116-R2-J3-PDC spheroids, percent test/control viability
Assay: Anticancer human tumor 454973-116-R2-J3-PDC patient-derived pancreatic carcinoma cell line growth inhibition [CLK]
Settings: spheroids with HUVEC and MSC; for IC50: curve of first compound; for viability, T/C: stronger effect = lower value
Summary of the method: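 Patient-derived tumor cells grown as complex spheroids with HUVEC endothelial cells and mesenchymal stem cells, treated with drug combinations. Concentrations descend in half-log steps from near clinical Cmax, or from 10 microM if Cmax unknown.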

[1] = second compound 0.0316 µM, first compound 0.0316 µM
[2] = second compound 0.0316 µM, first compound 0.1 µM
[3] = second compound 0.1 µM, first compound 0.0316 µM
[4] = second compound 0.1 µM, first compound 0.1 µM
[5] = second compound 0.316 µM, first compound 0.0316 µM
[6] = second compound 0.316 µM, first compound 0.1 µM
[7] = second compound 1 µM, first compound 0.0316 µM
[8] = second compound 1 µM, first compound 0.1 µM
[9] = second compound 3.16 µM, first compound 0.0316 µM
[10] = second compound 3.16 µM, first compound 0.1 µM
[11] = second compound 10 µM, first compound 0.0316 µM
[12] = second compound 10 µM, first compound 0.1 µM
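Note: spheroids exposed to compounds for 7 days before readout.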

**Q.** Which IC50 (second compound 0.0316 µM) does the source give for `Cn1ncnc1[C@H]1c2n[nH]c(=O)c3cc(F)cc(c23)N[C@@H]1c1ccc(F)cc1` + CN1CCN(c2cc(C(=O)Nc3cc4cc(-c5cnn(C)c5)ccc4cn3)ccn2)CC1 here?
**A.** > 100 nM

**Q.** What about the IC50 (second compound 0.1 µM) of the same compound?
**A.** > 100 nM

**Q.** What about the IC50 (second compound 0.316 µM) of the same compound?
**A.** < 0.316 nM

**Q.** What about the IC50 (second compound 1 µM) of the same compound?
**A.** < 0.316 nM

**Q.** What about the IC50 (second compound 3.16 µM) of the same compound?
**A.** < 0.316 nM

**Q.** What about the IC50 (second compound 10 µM) of the same compound?
**A.** < 0.316 nM

**Q.** And the viability, T/C (second compound 0.0316 µM, first compound 0.000316 µM)?
**A.** 93.9%

**Q.** And the viability, T/C (second compound 0.0316 µM, first compound 0.001 µM)?
**A.** 99%

**Q.** And the viability, T/C (second compound 0.0316 µM, first compound 0.00316 µM)?
**A.** 90.5%

**Q.** What about the viability, T/C (second compound 0.0316 µM, first compound 0.01 µM) of the same compound?
**A.** 92.9%

**Q.** What about the viability, T/C [1] of the same compound?
**A.** 91.2%

**Q.** And the viability, T/C [2]?
**A.** 85%

**Q.** And the viability, T/C (second compound 0.1 µM, first compound 0.000316 µM)?
**A.** 75.4%

**Q.** And the viability, T/C (second compound 0.1 µM, first compound 0.001 µM)?
**A.** 75%

**Q.** What about the viability, T/C (second compound 0.1 µM, first compound 0.00316 µM) of the same compound?
**A.** 83.2%

**Q.** And the viability, T/C (second compound 0.1 µM, first compound 0.01 µM)?
**A.** 71.3%

**Q.** What about the viability, T/C [3] of the same compound?
**A.** 59.1%

**Q.** And the viability, T/C [4]?
**A.** 50.1%

**Q.** What about the viability, T/C (second compound 0.316 µM, first compound 0.000316 µM) of the same compound?
**A.** 1.91%

**Q.** And the viability, T/C (second compound 0.316 µM, first compound 0.001 µM)?
**A.** 2.28%

**Q.** And the viability, T/C (second compound 0.316 µM, first compound 0.00316 µM)?
**A.** 3.23%

**Q.** And the viability, T/C (second compound 0.316 µM, first compound 0.01 µM)?
**A.** 4.91%

**Q.** What about the viability, T/C [5] of the same compound?
**A.** 2.64%

**Q.** What about the viability, T/C [6] of the same compound?
**A.** 2.84%

**Q.** What about the viability, T/C (second compound 1 µM, first compound 0.000316 µM) of the same compound?
**A.** 0.1%

**Q.** What about the viability, T/C (second compound 1 µM, first compound 0.001 µM) of the same compound?
**A.** 1.11%

**Q.** And the viability, T/C (second compound 1 µM, first compound 0.00316 µM)?
**A.** 0.09%

**Q.** And the viability, T/C (second compound 1 µM, first compound 0.01 µM)?
**A.** 0.08%

**Q.** And the viability, T/C [7]?
**A.** 0.09%

**Q.** What about the viability, T/C [8] of the same compound?
**A.** 0.1%

**Q.** And the viability, T/C (second compound 3.16 µM, first compound 0.000316 µM)?
**A.** 0.09%

**Q.** What about the viability, T/C (second compound 3.16 µM, first compound 0.001 µM) of the same compound?
**A.** 0.12%

**Q.** What about the viability, T/C (second compound 3.16 µM, first compound 0.00316 µM) of the same compound?
**A.** 0.1%

**Q.** What about the viability, T/C (second compound 3.16 µM, first compound 0.01 µM) of the same compound?
**A.** 1.05%

**Q.** And the viability, T/C [9]?
**A.** 1.67%

**Q.** And the viability, T/C [10]?
**A.** 0.12%

**Q.** What about the viability, T/C (second compound 10 µM, first compound 0.000316 µM) of the same compound?
**A.** 0.11%

**Q.** And the viability, T/C (second compound 10 µM, first compound 0.001 µM)?
**A.** 0.16%

**Q.** And the viability, T/C (second compound 10 µM, first compound 0.00316 µM)?
**A.** 0.17%

**Q.** And the viability, T/C (second compound 10 µM, first compound 0.01 µM)?
**A.** 0.29%

**Q.** What about the viability, T/C [11] of the same compound?
**A.** 0.12%

**Q.** And the viability, T/C [12]?
**A.** 0.14%

**Q.** What does the source list for `O=C(c1cc(Cc2n[nH]c(=O)c3ccccc23)ccc1F)N1CCN(C(=O)C2CC2)CC1` + CN1CCN(c2cc(C(=O)Nc3cc4cc(-c5cnn(C)c5)ccc4cn3)ccn2)CC1?
**A.** IC50 (second compound 0.0316 µM): > 10000 nM; IC50 (second compound 0.1 µM): 5860 nM; IC50 (second compound 0.316 µM): < 31.6 nM; IC50 (second compound 1 µM): < 31.6 nM; IC50 (second compound 3.16 µM): < 31.6 nM; IC50 (second compound 10 µM): < 31.6 nM; viability, T/C [1]: 99%; viability, T/C [2]: 99.5%; viability, T/C (second compound 0.0316 µM, first compound 0.316 µM): 101%; viability, T/C (second compound 0.0316 µM, first compound 1 µM): 115%; viability, T/C (second compound 0.0316 µM, first compound 3.16 µM): 94.7%; viability, T/C (second compound 0.0316 µM, first compound 10 µM): 71.8%; viability, T/C [3]: 75.8%; viability, T/C [4]: 77%; viability, T/C (second compound 0.1 µM, first compound 0.316 µM): 73.5%; viability, T/C (second compound 0.1 µM, first compound 1 µM): 75.7%; viability, T/C (second compound 0.1 µM, first compound 3.16 µM): 62.5%; viability, T/C (second compound 0.1 µM, first compound 10 µM): 38%; viability, T/C [5]: 1.44%; viability, T/C [6]: 2.27%; viability, T/C (second compound 0.316 µM, first compound 0.316 µM): 1.78%; viability, T/C (second compound 0.316 µM, first compound 1 µM): 1.98%; viability, T/C (second compound 0.316 µM, first compound 3.16 µM): 2.16%; viability, T/C (second compound 0.316 µM, first compound 10 µM): 2.03%; viability, T/C [7]: 0.12%; viability, T/C [8]: 0.14%; viability, T/C (second compound 1 µM, first compound 0.316 µM): 1.94%; viability, T/C (second compound 1 µM, first compound 1 µM): 0.08%; viability, T/C (second compound 1 µM, first compound 3.16 µM): 0.83%; viability, T/C (second compound 1 µM, first compound 10 µM): 0.08%; viability, T/C [9]: 0.13%; viability, T/C [10]: 0.21%; viability, T/C (second compound 3.16 µM, first compound 0.316 µM): 0.33%; viability, T/C (second compound 3.16 µM, first compound 1 µM): 0.13%; viability, T/C (second compound 3.16 µM, first compound 3.16 µM): 0.29%; viability, T/C (second compound 3.16 µM, first compound 10 µM): 0.27%; viability, T/C [11]: 1.42%; viability, T/C [12]: 0.14%; viability, T/C (second compound 10 µM, first compound 0.316 µM): 0.17%; viability, T/C (second compound 10 µM, first compound 1 µM): 0.13%; viability, T/C (second compound 10 µM, first compound 3.16 µM): 0.39%; viability, T/C (second compound 10 µM, first compound 10 µM): 0.22%
